Test results from paper PMC8372404 (Frontiers in Neuroscience, 2021).
Where a SMILES comes first, the peptide text is derived from it.

Tests used:
[1] = target: [3H]-LCGA-17 binding site in rat brain membranes (putative α2δ); test: [3H]-LCGA-17 radioligand competition binding assay; conditions: rat brain membranes
BALB/c mice [2] = test: Elevated plus maze (EPM); assay type: in vivo
Experimental: The open field test (OFT) was used to assess locomotion. The total distance traveled in a 5 min session was recorded using Ethovision XT14 ([Prut and Belzung, 2003]). The elevated plus maze (EPM) and the marble burying test (MBT) were used to assess anxiolytic-like drug activity. For the EPM ([Pellow et al., 1985]), the percentage of time spent in the open arms, the percentage of open arm entries, and the number of total arm entries during a 5-min session were recorded using Ethovision. “Anxiety Index” (AI), an integrative behavioral measure in the EPM was calculated as follows: 100 × {1 − [(time spent on open arms/total time on the maze)/2 + (number of entries to the open arms/total exploration on the maze)/2]} ([Cohen et al., 2011]). The MBT ([Njung’e and Handley, 1991]) was carried out in a 19 × 29 × 13 cm cage filled 5 cm deep with wood-chip bedding. Twenty marbles (5.2 g, 15 mm diameter, randomly colored) were evenly placed on the surface of the bedding in four rows of five pieces. At the end of a 30 min test, the animal was removed, and the marbles buried in bedding by at least two-thirds were recorded. […] The forced swim test (FST) was used for a preliminary assessment of antidepressant drug activity as described ([Colelli et al., 2014]). Briefly, on day one the mice were exposed to a 10 min pre-swim in a cylinder filled with 24 ± 1°C water. The next day they were re-exposed to the same apparatus for a 5 min test session with the behavior video recorded. The total time spent immobile was quantitated off-line visually. The interval between sequential behavioral tests was 2–3 days with the sequence OFT, EPM, MBT, and FST. All the testing and data analyses were performed by experimenters blind to treatment.

BALB/c mice [3] = test: Open field test (OFT); assay type: in vivo; conditions: diazepam 0.75 mg/kg
Experimental: (§1) The open field test (OFT) was used to assess locomotion. The total distance traveled in a 5 min session was recorded using Ethovision XT14 ([Prut and Belzung, 2003]). The elevated plus maze (EPM) and the marble burying test (MBT) were used to assess anxiolytic-like drug activity. For the EPM ([Pellow et al., 1985]), the percentage of time spent in the open arms, the percentage of open arm entries, and the number of total arm entries during a 5-min session were recorded using Ethovision. “Anxiety Index” (AI), an integrative behavioral measure in the EPM was calculated as follows: 100 × {1 − [(time spent on open arms/total time on the maze)/2 + (number of entries to the open arms/total exploration on the maze)/2]} ([Cohen et al., 2011]). The MBT ([Njung’e and Handley, 1991]) was carried out in a 19 × 29 × 13 cm cage filled 5 cm deep with wood-chip bedding. Twenty marbles (5.2 g, 15 mm diameter, randomly colored) were evenly placed on the surface of the bedding in four rows of five pieces. At the end of a 30 min test, the animal was removed, and the marbles buried in bedding by at least two-thirds were recorded. […] The next day they were re-exposed to the same apparatus for a 5 min test session with the behavior video recorded. The total time spent immobile was quantitated off-line visually. […]

Danio rerio [4] = test: Social preference test (SPT); assay type: in vivo; conditions: for SPT. Time spent out of shoaling zone, Median: 5 min session, exp group; for SPT, effect on time spent out of the shoaling zone vs vehicle: most informative dosage, Figure 2D
Experimental: (§2) Control groups were treated in parallel with vehicle alone. For drug injection, the fish were anesthetized briefly by placing them in 10°C water. The vehicle controls were tested in parallel.
(§3) Behavioral testing was initiated 10 min after drug injection, starting with the novel tank test (NTT), followed immediately thereafter by the light–dark box (LDB) and the social preference test (SPT). The NTT was adapted from [Maximino et al. (2013)] with the behavior video-recorded and the data processed using EthoVision XT14 (Noldus). The distance traveled, speed, number of visits to the bottom, middle and top thirds of the aquarium, respectively, and the times spent in each of these zones during the initial 5 min in the tank were recorded. A decreased time spent at the surface of the NTT apparatus reflects a reduction in exploratory behavior or increased hiding motivation ([Sackerman et al., 2010]). The behavior in the LDB ([Maximino et al., 2011]) and SPT ([Parker et al., 2014]) was video recorded and processed using RealTimer (Open Science LCC, Russia). The fish were added to the center zone of a three-zone aquarium and allowed to adapt for 1–2 min before removal of the septa separating the center from the flanking zones. The time spent and the number of visits to the light and dark flanking zones and the latency to enter the lit zone were recorded during a 5-min session. Stress of fish is associated with increased time spent in the dark compartment (scototaxis) ([Maximino et al., 2011]). For the SPT, the residence time and the number of visits to the three equally sized zones (near the shoal, in the center zone of the aquarium, and near the wall opposite to the shoal) were assessed during a 5-min session. Increased shoal preference (shoaling reflex) is thought to represent a protective response to a predator ([Nguyen et al., 2014]). All behavioral testing was done in the light phase using 500 lux (NTT, LDB) or 200 lux (SPT) illumination.

Danio rerio [5] = test: Light–dark box (LDB); assay type: in vivo; conditions: for LDB. Time spent in lit compartment, Median: 5 min session, exp group; for LDB, effect on time spent in the lit compartment vs vehicle: most informative dosage, Figure 2C
Experimental: as §2, §3

Danio rerio [6] = test: Novel tank test (NTT); assay type: in vivo; conditions: exp group; for NTT. Time spent in upper half of tank, Median: 10 min after injection, 5 min
Experimental: as §2, §3

BALB/c mice [7] = test: Marble burying test (MBT); assay type: in vivo; conditions: diazepam 0.75 mg/kg
Experimental: as §1

BALB/c mice [8] = test: Forced swim test (FST); assay type: in vivo; conditions: LCGA-17 5 mg/kg (none of the other dosages); diazepam 0.75 mg/kg
Experimental: as §1

[9] = Preliminary pharmacokinetic studies; assay type: in vivo; conditions: preliminary and ongoing pharmacokinetic studies
[10] = LCGA-17 20 mg/kg + bicuculline 5 mg/kg
[11] = bicuculline study: LCGA-17 20 mg/kg or bicuculline 5 mg/kg alone
[12] = LCGA-17 groups 1, 5, 10, 20 mg/kg combined

CN1CCc2cc3c(cc2[C@H]1[C@@H]1OC(=O)c2c1ccc1c2OCO1)OCO3 [Bicuculline]
IC50 ([1]; competition of [3H]-LCGA-17 (16 nM) binding, Table S1): > 100 µM | cross-reactivity with / competition at the [3H]-LCGA-17 binding site ([1]; result in words): no cross-reactivity | EPM, effect of co-administered bicuculline on the LCGA-17 effect on % time on open arms (BALB/c mice [2]; [10]): completely blocked | EPM, effect of co-administered bicuculline on the LCGA-17 effect on open arm entries (BALB/c mice [2]; [10]): reduced the LCGA-17 effect | EPM, effect of cotreatment with bicuculline on the LCGA-17 effect on AI (BALB/c mice [2]; [10]): reversed | EPM, effect on open arm entries, single agent (BALB/c mice [2]; bicuculline 5 mg/kg alone): without effects | EPM, effect on total arm entries (BALB/c mice [2]; bicuculline 5 mg/kg main effect, post hoc pairwise comparisons not significant): slightly reduced | EPM, effect on % time on open arms, single agent (BALB/c mice [2]; [11]): no effect | EPM, effect on Anxiety Index (AI), single agent (BALB/c mice [2]; [11]): without effects

CN1C(=O)CN=C(c2ccccc2)c2cc(Cl)ccc21 [Diazepam]
OFT, effect on distance traveled vs vehicle (BALB/c mice [3]; LCGA-17 5, 20 mg/ml as printed, 5 min session): modestly increased | OFT, effect on distance traveled vs vehicle (BALB/c mice [3]; [12]): increased | EPM, effect on percentage of time spent on open arms vs vehicle (BALB/c mice [2]; mouse, in vivo): increased | SPT. Time spent out of shoaling zone, Median (Danio rerio [4]; 1.25 mg/kg): 20 s | SPT. Time spent out of shoaling zone, Median (Danio rerio [4]; 5 mg/kg): 21 s | SPT, effect on time spent out of the shoaling zone vs vehicle (Danio rerio [4]): anxiolytic-like effect | LDB. Time spent in lit compartment, Median (Danio rerio [5]; 1.25 mg/kg): 21 s | LDB. Time spent in lit compartment, Median (Danio rerio [5]; 5 mg/kg): 177 s | LDB, effect on time spent in the lit compartment vs vehicle (Danio rerio [5]): anxiolytic-like effect | NTT. Distance traveled, Median (Danio rerio [6]; 1.25 mg/kg): 887 cm | NTT. Distance traveled, Median (Danio rerio [6]; 5 mg/kg): 595 cm | MBT, effect on number of marbles buried vs vehicle (BALB/c mice [7]; LCGA-17 5, 20 mg/kg, 30 min test): reduced | MBT, effect on number of marbles buried vs vehicle (BALB/c mice [7]; [12]): reduced | FST, effect on total time spent immobile vs vehicle (BALB/c mice [8]): failed to affect the behavior

NC(=O)CC[C@H](NC(=O)[C@@H](N)Cc1ccccc1)C(=O)N[C@@H](CO)C(=O)N[C@@H](CCC(=O)O)C(=O)O [LCGA-17, PheGlnSerGlu] (H-FQSE-OH; N-terminus and C-terminus assumed)
in vivo half-life [9]: minutes

TrpAspGlnVal (WDQV; printed: TrpAspGlnVal) [LCGA-59]
SPT. Time spent out of shoaling zone, Median (Danio rerio [4]; 1 mg/kg i.p.): 52 s | SPT. Time spent out of shoaling zone, Median (Danio rerio [4]; 10 mg/kg): 88 s | SPT, effect on time spent out of the shoaling zone vs vehicle (Danio rerio [4]): failed to affect behavior | LDB. Time spent in lit compartment, Median (Danio rerio [5]; 1 mg/kg i.p.): 74 s | LDB. Time spent in lit compartment, Median (Danio rerio [5]; 10 mg/kg): 87 s | LDB, effect on time spent in the lit compartment vs vehicle (Danio rerio [5]): Neither fluvoxamine (5 mg/kg) nor LCGA-59 and LCGA-83 (10 mg/kg) affected the behavior | NTT. Time spent in upper half of tank, Median (Danio rerio [6]; 1 mg/kg i.p.): 69 s | NTT. Distance traveled, Median (Danio rerio [6]; 1 mg/kg i.p.): 1730 cm | NTT. Time spent in upper half of tank, Median (Danio rerio [6]; 10 mg/kg): 74 s | NTT. Distance traveled, Median (Danio rerio [6]; 10 mg/kg): 1636 cm
